Measurements: ChEMBL document CHEMBL5634178, “Precursor-Directed Biosynthesis of Neoantimycin Derivatives with Selective Cytotoxicity” (J Nat Prod, 2024)

Experiments:
[1] = test system: A549; experiment: Cytotoxicity against human A549 cells expressing K-Ras […] mutant assessed as reduction in cell viability incubated for 72 hrs by CCK-8 assay; type: functional, cell-based; settings: A549, 72 h
[2] = test system: SW-620; experiment: Cytotoxicity against human SW620 cells expressing K-Ras G12V mutant assessed as reduction in cell viability incubated for 72 hrs by CCK-8 assay; type: functional, cell-based; settings: SW-620, 72 h
[3] = test system: DLD-1; experiment: Cytotoxicity against human DLD-1 cells expressing K-Ras G13D mutant assessed as reduction in cell viability incubated for 72 hrs by CCK-8 assay; type: functional, cell-based; settings: DLD-1, 72 h
[4] = test system: NCI-H1299; experiment: Cytotoxicity against human NCI-H1299 cells expressing N-ras mutant assessed as reduction in cell viability incubated for 72 hrs by CCK-8 assay; type: functional, cell-based; settings: NCI-H1299, 72 h
[5] = test system: NCI-H460; experiment: Cytotoxicity against human NCI-H460 cells expressing K-Ras Q61H mutant assessed as reduction in cell viability incubated for 72 hrs by CCK-8 assay; type: functional, cell-based; settings: NCI-H460, 72 h
[6] = test system: HT-29; experiment: Cytotoxicity against wild type human HT-29 cells assessed as reduction in cell viability incubated for 72 hrs by CCK-8 assay; type: functional, cell-based; settings: HT-29, 72 h
[7] = Cytotoxicity against human NCM460 cells assessed as reduction in cell viability incubated for 72 hrs by CCK-8 assay; type: toxicity, cell-based

Compound	IC50 [1] [µM]	IC50 [2] [µM]	IC50 [3] [µM]	IC50 [4] [µM]	IC50 [5] [µM]	IC50 [6] [µM]	IC50 at 72 h [7] [µM]
CC[C@H](C)[C@@H]1OC(=O)C(C)(C)C(=O)[C@H](Cc2ccccc2)OC(=O)[C@H](C(C)C)OC(=O)[C@@H](NC(=O)c2ccccc2)[C@@H](C)OC1=O	> 20	0.36	1.9	> 20	> 20	> 20	> 20
CC[C@H](C)[C@@H]1OC(=O)C(C)(C)C(=O)[C@H](Cc2ccccc2)OC(=O)[C@H](C(C)C)OC(=O)[C@@H](NC(=O)c2cccc(F)c2)[C@@H](C)OC1=O	> 20	1.1	3.5	> 20	> 20	> 20	> 20
CC[C@H](C)[C@@H]1OC(=O)C(C)(C)C(=O)[C@@H](Cc2ccccc2)OC(=O)[C@H](C(C)C)OC(=O)[C@@H](NC(=O)c2cccc(F)c2)[C@@H](C)OC1=O	11.2	0.33	2.7	> 20	8.8	> 20	> 20
CC[C@H](C)[C@@H]1OC(=O)C(C)(C)C(=O)[C@@H](Cc2ccccc2)OC(=O)[C@H](C(C)C)OC(=O)[C@@H](NC(=O)c2cccc(O)c2)[C@@H](C)OC1=O	10.1	1.9	> 20	> 20	> 20	> 20	> 20
CC[C@H](C)[C@@H]1OC(=O)C(C)(C)C(=O)[C@@H](Cc2ccccc2)OC(=O)[C@H](C(C)C)OC(=O)[C@@H](NC(=O)c2ccccc2)[C@@H](C)OC1=O	0.33	0.04	0.07	4.5	1.6	> 20	> 20
CC[C@H](C)[C@@H]1OC(=O)C(C)(C)C(=O)[C@@H](Cc2ccccc2)OC(=O)[C@H](C(C)C)OC(=O)[C@@H](NC(=O)c2ccccc2O)[C@@H](C)OC1=O	9.7	0.33	2.8	> 20	4.4	> 20	6.6
CC[C@H](C)[C@@H]1OC(=O)C(C)(C)C(=O)[C@@H](Cc2ccccc2)OC(=O)[C@H](C(C)C)OC(=O)[C@@H](NC(=O)c2ccccc2F)[C@@H](C)OC1=O	4.3	0.14	0.6	3.3	1.3	> 20	> 20
CC[C@H](C)[C@@H]1OC(=O)C(C)(C)[C@@H](O)[C@@H](Cc2ccccc2)OC(=O)[C@H](C(C)C)OC(=O)[C@@H](NC(=O)c2cccc(NC=O)c2O)[C@@H](C)OC1=O	4e-05	0.0038	0.059	0.0105	0.316	0.0006	0.00024
CC[C@H](C)[C@@H]1OC(=O)C(C)(C)C(=O)[C@H](Cc2ccccc2)OC(=O)[C@H](C(C)C)OC(=O)[C@@H](NC(=O)c2ccccc2F)[C@@H](C)OC1=O	> 20	0.56	2.6	> 20	> 20	9.4	> 20
CC[C@H](C)[C@@H]1OC(=O)C(C)(C)C(=O)[C@H](Cc2ccccc2)OC(=O)[C@H](C(C)C)OC(=O)[C@@H](NC(=O)c2cccc(O)c2)[C@@H](C)OC1=O	> 20	1.3	> 20	3.1	17.9	> 20	> 20
